The target of test [1] is Dual specificity mitogen-activated protein kinase kinase 2 (Homo sapiens) (UniProt P36507). Kind of test: Selectivity interaction (SelectScreen profiling (Invitrogen)) EUB0000607a MAP2K2. The note with it: at 2 µM.
For test [2], the target named is T1, Serine/threonine-protein kinase TAO3 (Homo sapiens) (UniProt Q9H2K8).
T1 sequence (whole entry): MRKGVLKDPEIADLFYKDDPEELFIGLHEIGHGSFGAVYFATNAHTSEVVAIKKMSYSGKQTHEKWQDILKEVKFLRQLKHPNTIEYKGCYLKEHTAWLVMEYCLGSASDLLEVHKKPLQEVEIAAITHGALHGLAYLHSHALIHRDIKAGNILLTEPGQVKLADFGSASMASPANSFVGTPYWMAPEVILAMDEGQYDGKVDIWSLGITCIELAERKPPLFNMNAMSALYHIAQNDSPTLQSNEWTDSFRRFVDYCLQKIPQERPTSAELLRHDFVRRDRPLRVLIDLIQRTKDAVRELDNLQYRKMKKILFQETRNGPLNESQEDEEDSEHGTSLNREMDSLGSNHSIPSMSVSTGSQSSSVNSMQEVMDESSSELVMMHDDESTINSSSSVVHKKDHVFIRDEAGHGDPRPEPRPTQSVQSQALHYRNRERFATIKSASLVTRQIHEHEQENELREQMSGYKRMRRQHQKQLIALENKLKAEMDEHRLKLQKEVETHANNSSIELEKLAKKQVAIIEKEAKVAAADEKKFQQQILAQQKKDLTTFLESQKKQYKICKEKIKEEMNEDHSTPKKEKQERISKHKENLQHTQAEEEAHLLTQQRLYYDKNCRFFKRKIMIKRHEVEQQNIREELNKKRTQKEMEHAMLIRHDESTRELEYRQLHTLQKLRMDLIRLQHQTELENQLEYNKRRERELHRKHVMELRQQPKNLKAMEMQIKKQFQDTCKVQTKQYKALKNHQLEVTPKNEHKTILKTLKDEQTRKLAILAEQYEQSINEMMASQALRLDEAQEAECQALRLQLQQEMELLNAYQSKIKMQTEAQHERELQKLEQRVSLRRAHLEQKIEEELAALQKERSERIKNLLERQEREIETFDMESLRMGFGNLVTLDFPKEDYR
Kind of test: Selectivity interaction (KinomeScan (DiscoverX)) EUB0000607a TAOK3. The note with it: at 10 µM.

For test [3], the target named is T2, Ephrin type-A receptor 8 (Homo sapiens) (UniProt P29322).
T2 sequence (whole entry): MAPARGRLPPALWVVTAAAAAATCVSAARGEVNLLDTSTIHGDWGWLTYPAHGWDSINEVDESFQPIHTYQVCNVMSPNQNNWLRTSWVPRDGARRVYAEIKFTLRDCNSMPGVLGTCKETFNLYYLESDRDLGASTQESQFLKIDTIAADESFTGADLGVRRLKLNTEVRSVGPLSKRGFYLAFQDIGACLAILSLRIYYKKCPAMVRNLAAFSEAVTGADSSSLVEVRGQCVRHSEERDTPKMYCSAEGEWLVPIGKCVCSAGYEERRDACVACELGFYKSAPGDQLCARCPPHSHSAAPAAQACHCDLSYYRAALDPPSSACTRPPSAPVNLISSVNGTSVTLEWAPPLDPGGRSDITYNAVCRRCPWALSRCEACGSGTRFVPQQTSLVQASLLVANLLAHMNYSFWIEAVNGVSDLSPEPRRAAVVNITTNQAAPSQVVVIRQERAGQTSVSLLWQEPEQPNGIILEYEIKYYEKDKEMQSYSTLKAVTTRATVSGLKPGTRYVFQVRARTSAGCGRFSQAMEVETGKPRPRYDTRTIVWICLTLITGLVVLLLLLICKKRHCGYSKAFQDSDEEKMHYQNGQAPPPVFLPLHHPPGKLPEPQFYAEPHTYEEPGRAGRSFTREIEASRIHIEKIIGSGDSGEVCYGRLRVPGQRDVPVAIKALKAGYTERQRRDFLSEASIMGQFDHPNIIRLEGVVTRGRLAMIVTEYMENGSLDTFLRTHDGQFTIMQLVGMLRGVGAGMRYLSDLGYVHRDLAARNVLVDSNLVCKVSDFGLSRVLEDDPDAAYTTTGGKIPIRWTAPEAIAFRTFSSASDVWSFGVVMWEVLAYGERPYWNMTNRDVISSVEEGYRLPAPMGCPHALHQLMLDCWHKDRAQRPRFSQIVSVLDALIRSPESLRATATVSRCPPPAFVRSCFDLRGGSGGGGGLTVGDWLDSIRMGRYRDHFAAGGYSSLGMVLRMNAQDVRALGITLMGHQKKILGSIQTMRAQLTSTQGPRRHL
Nature of the test: Selectivity interaction (KinomeScan (DiscoverX)) EUB0000045b EPHA8.

Test [4] concerns the target Phosphatidylinositol 3-kinase catalytic subunit type 3 (Homo sapiens, UniProt Q8NEB9). Kind of test: Selectivity interaction (KinomeScan (DiscoverX)) EUB0001049a PIK3C3. The note with it: at 1 µM.
The target of test [5] is Tyrosine-protein kinase Blk (Homo sapiens) (UniProt P51451). Nature of the test: Selectivity interaction (KinomeScan (DiscoverX)) EUB0000618a BLK. The note with it: at 10 µM.
The target of test [6] is T3, Serine/threonine-protein kinase haspin (Homo sapiens) (UniProt Q8TF76).
T3 sequence (whole entry): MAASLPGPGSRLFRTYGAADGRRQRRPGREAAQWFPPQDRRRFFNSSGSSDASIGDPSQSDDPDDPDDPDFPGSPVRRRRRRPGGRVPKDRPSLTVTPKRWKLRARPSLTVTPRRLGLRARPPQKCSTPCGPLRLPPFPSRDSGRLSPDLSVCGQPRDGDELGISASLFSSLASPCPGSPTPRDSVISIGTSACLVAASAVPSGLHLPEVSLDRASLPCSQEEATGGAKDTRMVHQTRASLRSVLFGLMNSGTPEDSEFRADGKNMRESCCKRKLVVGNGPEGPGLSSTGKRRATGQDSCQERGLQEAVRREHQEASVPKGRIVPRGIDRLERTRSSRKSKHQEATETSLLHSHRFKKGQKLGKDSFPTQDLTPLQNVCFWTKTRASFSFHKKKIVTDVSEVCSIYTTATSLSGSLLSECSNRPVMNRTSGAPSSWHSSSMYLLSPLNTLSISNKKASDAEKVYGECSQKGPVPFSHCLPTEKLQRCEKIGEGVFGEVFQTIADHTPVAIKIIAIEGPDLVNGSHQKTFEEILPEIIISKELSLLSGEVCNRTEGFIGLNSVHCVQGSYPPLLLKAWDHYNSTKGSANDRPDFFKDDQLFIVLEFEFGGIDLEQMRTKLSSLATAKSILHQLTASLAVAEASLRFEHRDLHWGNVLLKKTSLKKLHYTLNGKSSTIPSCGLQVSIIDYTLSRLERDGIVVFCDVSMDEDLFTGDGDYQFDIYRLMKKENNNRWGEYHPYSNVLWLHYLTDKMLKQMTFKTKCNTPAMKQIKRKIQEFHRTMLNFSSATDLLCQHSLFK
Kind of test: Selectivity interaction (KinomeScan (DiscoverX)) EUB0001079a GSG2. The note with it: at 1 µM.

Test [7] has as its target Casein kinase I isoform delta (Homo sapiens, UniProt P48730). Nature of the test: Selectivity interaction (KinomeScan (DiscoverX)) EUB0000229b CSNK1D. The note with it: at 10 µM.

Molecules are shown by their SMILES.

Phosphatidylinositol 3-kinase catalytic subunit type 3, sequence (Q8NEB9 whole entry): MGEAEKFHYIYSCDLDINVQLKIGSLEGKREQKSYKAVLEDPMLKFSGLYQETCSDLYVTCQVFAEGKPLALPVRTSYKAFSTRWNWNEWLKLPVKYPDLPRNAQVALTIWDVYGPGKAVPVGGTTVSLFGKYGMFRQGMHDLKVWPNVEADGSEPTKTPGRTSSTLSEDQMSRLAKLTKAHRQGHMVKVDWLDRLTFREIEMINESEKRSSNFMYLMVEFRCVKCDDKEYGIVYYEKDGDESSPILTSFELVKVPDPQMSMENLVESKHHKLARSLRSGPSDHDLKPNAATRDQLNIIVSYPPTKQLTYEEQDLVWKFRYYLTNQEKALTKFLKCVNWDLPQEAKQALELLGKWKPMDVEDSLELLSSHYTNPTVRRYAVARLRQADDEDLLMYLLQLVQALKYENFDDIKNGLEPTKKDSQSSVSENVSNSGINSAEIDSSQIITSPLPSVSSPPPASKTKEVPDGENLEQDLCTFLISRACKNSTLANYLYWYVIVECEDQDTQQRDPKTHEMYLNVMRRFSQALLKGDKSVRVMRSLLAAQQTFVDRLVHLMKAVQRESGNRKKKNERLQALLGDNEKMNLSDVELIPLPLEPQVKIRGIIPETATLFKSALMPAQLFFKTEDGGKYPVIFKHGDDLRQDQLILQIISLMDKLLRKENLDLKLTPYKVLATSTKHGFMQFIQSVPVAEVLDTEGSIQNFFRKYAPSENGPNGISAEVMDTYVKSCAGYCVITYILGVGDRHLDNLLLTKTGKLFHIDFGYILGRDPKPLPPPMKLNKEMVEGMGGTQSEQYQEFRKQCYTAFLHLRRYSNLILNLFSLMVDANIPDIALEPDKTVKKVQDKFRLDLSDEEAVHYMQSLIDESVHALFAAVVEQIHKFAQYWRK
Tyrosine-protein kinase Blk (Homo sapiens), sequence (P51451 2-505 limits assumed): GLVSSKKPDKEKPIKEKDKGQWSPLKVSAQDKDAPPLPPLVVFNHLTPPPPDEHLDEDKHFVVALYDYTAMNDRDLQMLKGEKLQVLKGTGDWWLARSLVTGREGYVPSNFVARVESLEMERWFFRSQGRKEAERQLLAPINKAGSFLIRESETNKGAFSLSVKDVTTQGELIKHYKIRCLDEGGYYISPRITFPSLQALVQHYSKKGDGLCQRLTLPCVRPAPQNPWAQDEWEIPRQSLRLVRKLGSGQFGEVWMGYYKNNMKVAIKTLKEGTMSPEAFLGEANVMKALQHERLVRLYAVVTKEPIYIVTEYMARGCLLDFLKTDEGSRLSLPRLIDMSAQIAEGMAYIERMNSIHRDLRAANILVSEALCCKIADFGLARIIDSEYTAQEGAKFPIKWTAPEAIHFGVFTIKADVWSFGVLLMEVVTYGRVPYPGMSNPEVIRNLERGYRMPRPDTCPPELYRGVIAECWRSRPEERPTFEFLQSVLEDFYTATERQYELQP
Casein kinase I isoform delta, sequence (P48730 whole entry, looked up, canonical isoform): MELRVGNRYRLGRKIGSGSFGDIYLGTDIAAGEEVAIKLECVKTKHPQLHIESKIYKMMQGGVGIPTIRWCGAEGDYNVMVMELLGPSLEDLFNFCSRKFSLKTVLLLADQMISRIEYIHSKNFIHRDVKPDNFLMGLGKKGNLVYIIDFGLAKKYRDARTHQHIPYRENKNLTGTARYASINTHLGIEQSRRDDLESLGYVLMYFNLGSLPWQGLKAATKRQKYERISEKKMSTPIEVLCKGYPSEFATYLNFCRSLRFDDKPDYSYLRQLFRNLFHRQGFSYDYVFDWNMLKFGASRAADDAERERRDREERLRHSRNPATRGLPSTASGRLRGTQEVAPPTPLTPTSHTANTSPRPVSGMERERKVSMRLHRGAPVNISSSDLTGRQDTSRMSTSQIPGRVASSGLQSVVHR
Dual specificity mitogen-activated protein kinase kinase 2 (Homo sapiens), sequence (P36507 whole entry): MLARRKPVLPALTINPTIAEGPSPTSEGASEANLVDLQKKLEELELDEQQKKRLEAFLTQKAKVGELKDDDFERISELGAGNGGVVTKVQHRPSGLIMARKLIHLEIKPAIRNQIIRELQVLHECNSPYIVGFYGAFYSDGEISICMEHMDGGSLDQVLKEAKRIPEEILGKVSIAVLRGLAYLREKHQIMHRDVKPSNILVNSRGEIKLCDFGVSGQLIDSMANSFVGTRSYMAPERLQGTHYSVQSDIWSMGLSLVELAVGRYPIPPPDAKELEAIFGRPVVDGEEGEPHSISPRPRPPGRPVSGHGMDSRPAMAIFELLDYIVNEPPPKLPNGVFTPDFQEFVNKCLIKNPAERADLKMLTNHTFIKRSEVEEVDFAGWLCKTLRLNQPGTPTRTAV

`CNC(=O)Nc1ccc(-c2nc(N3CC4CCC(C3)O4)c3cnn(C4CCC5(CC4)OCCO5)c3n2)cc1` came in with a % of inhibition in test [1] of 2%. Besides, the % of control in test [2] came to 90%. With `C=CC(=O)Nc1cc(-n2c(=O)ccc3cnc4ccc(-c5ccc(NS(C)(=O)=O)cc5)cc4c32)ccc1C`, the % of control is 100% in test [3] (at 1 µM) and 76% in test [3] (at 10 µM).

Take `COc1cc(Nc2nc(C)cc(-c3cnn4nc(OC)ccc34)n2)cc(C(F)(F)F)c1`: the % of control in test [4] stood at 100%. For `O[C@H]1CC[C@H](Nc2ncc3nc(Nc4c(F)cc(F)cc4F)n([C@H]4CCOC4)c3n2)CC1`, in test [5], the % of control was found to be 98%. For `Nc1cnc(N2CCc3cc(S(=O)(=O)Nc4c(F)cc(Cl)cc4F)cc(N4CCCC4=O)c32)nc1` [TP-020n], the % of control in test [6] came out at 100%. For `COc1cc(N(C)c2ccnc3ccc(C(F)(F)F)cc23)cc(OC)c1OC`, the % binding in test [7] stood at 69%.

Values taken from ChEMBL document CHEMBL5465560, “Selectivity Literature for EUbOPEN Chemogenomic Library” (2024).
